# Measurements as given in patent US8377851B2, “Method of altering the alkaloid composition in poppy plants” (priority 2004, dated 2013).
# Where two headings read alike, the source gives them in different places.
# Key:
# morphine crop [1] = test system: morphine crop; parameters: species or system Papaver somniferum; details: in vivo
# morphine crop [2] = test: Example 29 field trial: methyl jasmonate, capsule/seed ratio and alkaloid assay
# morphine crop [3] = test system: morphine crop; parameters: species or system Papaver somniferum; details: in vivo; remark: listed apart in the source
smiles,measurement,setting,value
O=C(O)CN(CCN(CC(=O)O)CC(=O)O)CC(=O)O [EDTA],CAPSULE/SEED RATIO,morphine crop [1],0.590 c
same,CODEINE kg/ha,morphine crop [1],0.790 b kg/ha
same,MORPHINE kg/ha,morphine crop [1],32.97 a kg/ha
same,ORIPAVINE kg/ha,morphine crop [1],0.618 c kg/ha
same,SEED kg/ha,morphine crop [1],1960 a kg/ha
same,STRAW CODEINE %,morphine crop [1],0.047 b %
same,STRAW MORPHINE %,morphine crop [1],1.98 a %
same,STRAW O'PAVINE %,morphine crop [1],0.036 b %
same,STRAW THEBAINE %,morphine crop [1],0.139 c %
same,STRAW kg/ha,morphine crop [1],1668 b kg/ha
same,THEBAINE kg/ha,morphine crop [1],2.350 c kg/ha
same,YIELD t/ha,morphine crop [1],3.63 ab t/ha
"CC/C=C\CC1C(=O)CCC1CC(=O)OC (centres unmarked) [METHYL JASMONATE, methyl jasmonate]",CAPSULE/SEED RATIO,morphine crop [2]; METHYL JAS .15 L/ha at EF,0.575 a
same,STRAW CODEINE,morphine crop [2]; METHYL JAS .15 L/ha at EF,0.064 b %
same,STRAW MORPHINE,morphine crop [2]; METHYL JAS .15 L/ha at EF,2.04 a %
same,STRAW O'PAVINE,morphine crop [2]; METHYL JAS .15 L/ha at EF,0.009 b %
same,STRAW THEBAINE,morphine crop [2]; METHYL JAS .15 L/ha at EF,0.042 b %
same,CAPSULE/SEED RATIO,morphine crop [2]; METHYL JAS .15 L/ha at GCAPS,0.577 a
same,STRAW CODEINE,morphine crop [2]; METHYL JAS .15 L/ha at GCAPS,0.044 c %
same,STRAW MORPHINE,morphine crop [2]; METHYL JAS .15 L/ha at GCAPS,2.01 a %
same,STRAW O'PAVINE,morphine crop [2]; METHYL JAS .15 L/ha at GCAPS,0.005 c %
same,STRAW THEBAINE,morphine crop [2]; METHYL JAS .15 L/ha at GCAPS,0.033 c %
same,CAPSULE/SEED RATIO,morphine crop [2]; METHYL JAS .3 L/ha at EF,0.581 a
same,STRAW CODEINE,morphine crop [2]; METHYL JAS .3 L/ha at EF,0.075 a %
same,STRAW MORPHINE,morphine crop [2]; METHYL JAS .3 L/ha at EF,2.09 a %
same,STRAW O'PAVINE,morphine crop [2]; METHYL JAS .3 L/ha at EF,0.011 a %
same,STRAW THEBAINE,morphine crop [2]; METHYL JAS .3 L/ha at EF,0.051 a %
same,CAPSULE/SEED RATIO,morphine crop [2]; METHYL JAS .3 L/ha at GCAPS,0.577 a
same,STRAW CODEINE,morphine crop [2]; METHYL JAS .3 L/ha at GCAPS,0.042 c %
same,STRAW MORPHINE,morphine crop [2]; METHYL JAS .3 L/ha at GCAPS,2.04 a %
same,STRAW O'PAVINE,morphine crop [2]; METHYL JAS .3 L/ha at GCAPS,0.004 c %
same,STRAW THEBAINE,morphine crop [2]; METHYL JAS .3 L/ha at GCAPS,0.029 c %
same,CAPSULE/SEED RATIO,morphine crop [3],0.685 c
same,CODEINE kg/ha,morphine crop [3],1.104 a kg/ha
same,MORPHINE kg/ha,morphine crop [3],19.99 b kg/ha
same,ORIPAVINE kg/ha,morphine crop [3],7.853 c kg/ha
same,SEED kg/ha,morphine crop [3],1886 bc kg/ha
same,STRAW CODEINE %,morphine crop [3],0.059 a %
same,STRAW MORPHINE %,morphine crop [3],1.07 b %
same,STRAW O'PAVINE %,morphine crop [3],0.422 b %
same,STRAW THEBAINE %,morphine crop [3],1.028 c %
same,STRAW kg/ha,morphine crop [3],1863 b kg/ha
same,THEBAINE kg/ha,morphine crop [3],19.124 c kg/ha
same,YIELD kg/ha,morphine crop [3],3.75 a kg/ha
